Experimental data: patent US8216607B2, “Combination of ceramide and gemcitabine for inducing cell death and uses thereof in treating cancer” (priority 2008, dated 2012)
Where two headings read alike, the source gives them in different places.

Tests used:
[1] = test system: L3.6 human pancreatic adeno-carcinoma
Procedure: Pancreatic adenocarcinoma (PA), the fifth most common cause of cancer death in the United States is commonly metastatic and unresectable and is poorly responsive to therapy. […] The in vitro cytotoxicity effect of gemcitabine+/−C6 ceramide versus L3.6 pancreatic cancer cell line were measured using MTT assay. In vivo experiments were performed using SCID/Beige/Taconic male mice, 22-25 g, 6-8 weeks old (Taconic Laboratory, Germantown, N.Y., USA). Mice were inoculated s.c. with 2×106L3.6 PA cells. Four days later mice developed primary tumors and chemotherapy was started. Mice were treated 3 times/week for 4 weeks with i.p. injections of gemcitabine (5.0-10.0-15.0 mg/kg) and C6 ceramide (10.0 mg/kg) or combinations of these drugs. Body weight (BW) and diameters of tumors (TD) were measured every week. Diameters of tumors were used to count the volumes of primary tumors: TV. We also studied percent survival and mean survival time (MST). In these experiments we used the new test: mean rate tumor development (MRTD) which reflects the speed of tumor development and was measured by the formula: MTV/MST.
In vivo experiments utilized SCID/Beige/Taconic male mice inoculated S.C. with 2×106 L3.6 pancreatic cells which were treated 4 days post tumor implant with thrice weekly (3×/wk) intraperitoneal (IP) injections of paclitaxel (P) 3.0 mg/kg, oxaliplatin (OX) 2.5 mg/kg, cisplatin (CP) 2.5 mg/kg, gemcitabine (Gem) 15 mg/kg with or without ceramide 10 mg/kg. Chemotherapy dose levels were based on standardized clinical dosing as modified from in vitro data. […] Maximum tumor volume, tumor weight, body weight and survival were recorded. […] Separate histopathology studies recorded short term effects on tumor necrosis, mitotic index and caspase index.

[2] = test system: L3.6 pancreatic cancer cell line
[3] = dose column 10 mg/kg (gemcitabine or ceramide alone; ceramide 10 mg/kg in combination)

| Compound | anti-tumor regression and survival induced by Oxaliplatin and Gemcitabine ([1]; combination therapy) | Tumor Size (cc) ([1]; dose column 10 mg/kg) | Mean Survival Time [1, 3] | anti tumor effects of co-administered drugs ([1]; with Paclitaxel, Doxorubicin, Cisplatin, Oxaliplatin, Gemcitabine) | effect on cytotoxicity induced by low dose cisplatin and oxaliplatin [2] | % Survival @ 3 Weeks ([1]; 3 weeks) | % Survival @ 6 Weeks ([1]; 6 weeks) | Tumor Size (cc) ([1]; dose column 5 mg/kg) | Mean Survival Time ([1]; dose column 5 mg/kg (gemcitabine; ceramide 10 mg/kg in combination)) | Tumor Size (cc) ([1]; dose column 15 mg/kg) | Mean Survival Time ([1]; dose column 15 mg/kg (gemcitabine; ceramide 10 mg/kg in combination)) | Mean Final Tumor Volume ([1]; i.p. 3x/wk from day 4, paclitaxel 3.0, oxaliplatin 2.5, cisplatin 2.5, gemcitabine 15, ceramide 10 mg/kg, observed 6 weeks, in cm³) | Mean Survival Time ([1]; i.p. 3x/wk, paclitaxel 3.0, oxaliplatin 2.5, cisplatin 2.5, gemcitabine 15, ceramide 10 mg/kg) | Mean Body Weight (g) (Time of Death or Sacrifice) ([1]; time of death or sacrifice) |
| --- | --- | --- | --- | --- | --- | --- | --- | --- | --- | --- | --- | --- | --- | --- |
| CCCCCCCCCCCCC/C=C/[C@@H](O)[C@H](CO)NC(=O)CCCCC [Ceramide, N-hexanoyl-D-sphingosine] | significantly enhanced | 0.253 cc | 27.8 ± 10.2 days | augmented the anti tumor effects | parallel effects |  |  |  |  |  |  |  |  |  |
| Nc1ccn([C@@H]2O[C@H](CO)[C@@H](O)C2(F)F)c(=O)n1 [Gemcitabine] |  | 0.376 cc | 27.8 ± 10.2 days |  |  | 40% | 0% | 0.412 cc | 19.6 ± 3.6 days | 0.439 cc | 23.2 ± 5.9 days | 1.10 +/−^ | 22.8 ± 4.5 days | 15.6 g |
